Source: patent US12558376B2, “Tissue repair by activated cells” (TECHNION RESEARCH & DEVELOPMENT FOUNDATION LIMITED, priority 2018, dated 2026)

Key:
[1] = tested on: PANC1 tumors; experiment: Subcutaneous PANC1 tumors treated with gemcitabine: MSC homing; type: in vivo; conditions: PANC1 tumors in SCID mice, gemcitabine 500 mg/kg, after 72 hours; for MSC homing to tumors and proximity to CSCs (immunostaining): vs untreated control
Procedure: Eight-to-ten-week-old SCID mice were subcutaneously implanted with PANC1 cells (n=5 mice/group). […] Nuclei were stained with DAPI (blue). Red arrows represent CSCs whereas white arrows represent MSCs. Scale bar, 100 μm. FIG. 1B: Right Left side is a graph showing the distance between MSCs and CSCs as was measured and plotted (n>15 fields/group) and FIG. 1B left-right side is a graph showing the percentage of MSCs in tumor single cell suspensions was quantified by flow cytometry. […] After 3 days, the percentage of TICs in culture was assessed by flow cytometry. The use of animals and experimental protocols were approved by the Animal Care and Use Committee of the Technion. Human PANC1 (5×10^6 cells) were subcutaneously injected into the flank of eight-to-ten-week-old CB.17 female SCID mice (Harlan, Israel). Tumor size was assessed regularly with Vernier calipers using the formula width^2×length×0.5. […] Tumors or […] were embedded in […], Japan) and subsequently frozen at -80° C. […] Sections were fixed in cold acetone for 15 minutes. CSCs were stained with PE-conjugated antibodies against human prominin-1 (CD133, 1:250, Macs MiltenyiBiotec). […] Tumor sections were analyzed with a camera attached to an inverted microscope (Leica CTR 6000) using Leica Application suite Version 3.4.0 software or a LSM 700 Zeiss confocal microscope (Zeiss, Germany). Nuclei were stained with DAPI (Electron Microscopy Sciences, PA, USA).

[2] = tested on: mesenchymal stem cells (MSCs); experiment: Cytokine array of MSC conditioned medium (secretome); type: cell-based, human; conditions: gemcitabine-activated vs untreated MSCs
Procedure: Human bone marrow MSCs (LONZA, Switzerland) were cultured in minimum essential medium-alpha (αMEM) supplemented with 10% FBS 1% L-glutamine, 1% sodium-pyruvate, and 1% streptomycin. Medium was replaced every 3 days, and cells were maintained in culture for up to 7 passages.
After 72 hours, CM was collected.
The signals corresponding to each factor in the array were quantified by densitometry analysis.

Which “recruitment of MSCs to pancreatic tumors (percentage of MSCs, flow cytometry)” value [1] does the source give for `Nc1ccn([C@@H]2O[C@H](CO)[C@@H](O)C2(F)F)c(=O)n1` [gemcitabine] here?
The value was “massive recruitment of MSCs”.

What about the “MSC homing to tumors and proximity to CSCs (immunostaining)” value [1] of the same compound?
Its value is “MSCs home to tumors and locate in close proximity to CSCs”.

And the “MSC homing to tumors and proximity to CSCs (immunostaining)” value ([1]; listed as Gemcitabine)?
The value was “promotes MSCs homing to tumors”.

What about the “CXCL10 secretion in conditioned medium of MSCs” value [2] of the same compound?
Its value is “highly elevated”.
